Test [1] relates to HEC155 endometrial cancer cell line. Kind of test: Cell viability assay (WST-1), HEC155. Type of test: cell-based. The settings on record: for IC50: HEC155, 48 hours exposure. As to the method:
(§1) Cell viability was determined by 2,3-bis[2-methoxy-4-nitro-5-sulfophenyl]-2H-tetrazolium-5-carboxanilide inner salt assay as previously described. Briefly, cells were seeded at the concentration of 1.000 per well in 100 μL medium in 96-well plate and treated with the indicated concentrations of drugs. At the indicated time points, cells were incubated according to the manufacturer's protocol with the WST-1 labeling mixture for 2 hours. Formazan dye was quantified using a spectrophotometric plate reader to measure the absorbance at 450 nm (ELISA reader 190; Molecular Devices).
(§2) The next step was to investigate whether USP14 is a molecular target for endometrial cancer cells. To this end, the expression levels of USP14 in a panel of endometrial cancer cell lines including HEC155, EFE184 and ECC1 was first measured. These cells were chosen as they represent the most aggressive and most likely to recur endometrial cancer types. As shown in FIG. 4A (left panel), all cell lines tested expressed USP14 with HEC155 and ECC1 having the highest levels. Next. ECC1 and HEC155 endometrial cancer cells were exposed to increasing concentrations of the small-molecule inhibitor […] and the residual cell viability was measured after a period of 48 hours.
(§3) In the clinical setting, recurrent endometrial cancer is usually resistant to chemotherapy. Previous studies have reported that among endometrial cancer cell lines, HEC155 and ECC1 have the highest levels of LCAM, a marker for endometrial cancer recurrence. […] Thus, the IC50 levels for carboplatin treatment of HEC155 and ECC1 cells was measured.
(Formazan colour is commonly taken as a measure of viable cells.)

Test [2] deals with ECC1 endometrial cancer cell line. As to the kind of experiment: Cell viability assay (WST-1), ECC1. The format is cell-based. The note with it: for IC50: ECC1, 48 hours exposure. The procedure:
as §1, §2, §3

Test [3] shares this test system. As to the kind of experiment: Multi-step carboplatin chemoresistance model, ECC1. Type of test: cell-based. The text has this: USP14 is co-expressed with ETM makers during the multi-stage process leading to chemoresistance. Acquisition of aggressive phenotype and chemoresistance is a multi-stage process whereby the subpopulation of cells surviving drug treatment give rise to cells characterized by increased in migratory behavior, proliferation rate and chemoresistance via a transition accompanied by increase in stem cell and epithelial-mesenchymal transition (EMT) markers. This model was recapitulated in ECC1 endometrial cancer cell line and the temporal USP14 expression was evaluated during this multi-step process. Specifically. ECC1 cells were exposed to two rounds of carboplatin treatment (20 μM) over the period of two weeks. The first round resulted with approx. 60% of cell death. The second round resulted with approx. 90% of cell death. Consistent with what previously shown, the surviving population was characterized by giant, polyploidy, chemoresistant cells whose numbers remained similar over the course of the following two weeks. […] Next, the expression levels of USP14 and the EMT marker vimentin were evaluated in the initial population (chemosensitive tumor) and in two of the chemoresistant clones. USP14 overexpression is temporally associated to the expression of the EMT marker vimentin.

Test [4] concerns carboplatin sensitive cancer cells. Kind of test: Multi-step carboplatin chemoresistance model in vitro (Example 2). The format is cell-based. The settings on record: 10 μM, two rounds over two weeks. The procedure:
Multi-step process leading to recurrence can be recapitulated in vitro and results with up-regulation of USP14. Carboplatin chemoresistance was recapitulated in vitro according to the model schematized in FIG. 9. Specifically, carboplatin sensitive cancer cells were exposed to two rounds of carboplatin treatment (10 μM) over the period of two weeks. The first round resulted with approx. 60% of cell death. The second round resulted with approx. 90% of cell death. This is consistent with the dramatic reduction in tumor burden in chemosensitive patients treated with neoadjuvant chemotherapy. […] As shown in FIG. 9 the chemotherapy surviving population was characterized by stem like giant, polyploidy, chemoresistant cells whose numbers remained similar over the course of the following two weeks. This population was the precursor of clones of cells that survived in presence of carboplatin. Strikingly, when the expression levels of USP14 and the […] marker vimentin were evaluated in the initial population (chemosensitive tumor) and in two of the chemoresistant clones isolated. USP14 overexpression is temporally associated to over-expression of the […] marker, vimentin.

Test [5] concerns COV362 ovarian cancer cells. Kind of test: Cell viability of sensitive and carboplatin-resistant COV362. Type of test: cell-based. As to the method:
(§4) FIG. 11. COV362 and ES-2 carboplatin-resistant clones. Residual cell viability of sensitive and resistant COV362 and ES-2 ovarian cancer cells exposed to the indicated concentrations of carboplatin over a period of 48 hours.
(§5) FIG. 12. Carboplatin resistant COV362 and ES-2 ovarian cancer cells are sensitive to USP14 inhibition. Residual cell viability of resistant COV362 and ES-2 ovarian cancer cells exposed to the indicated concentrations of the FDA approved USP14 inhibitor VLX1570 over a period of 48 hours. The structure of VLX1570 is:
(§6) Carboplatin-resistant ovarian cancer cell lines are sensitive to pharmacological inhibition of USP14. Two ovarian cancer cell lines, COV-362 and ES-2 were exposed to carboplatin according to the method described in FIG. 9 and the resulting USP14 overexpressing clones were subjected to cell viability assay to assess the extent of chemoresistance. […] Next, the sensitivity of COV362 and ES-2 resistant clones to the FDA approved USP14 inhibitor VLX1570 was determined.

For test [6], the system named is ES-2 ovarian cancer cells. As to the kind of experiment: Cell viability of sensitive and carboplatin-resistant ES-2. Type of test: cell-based. As to the method:
as §4, §5, §6

The test system of test [7] is cisplatin resistant ovarian cancer cell lines HEY and OVCA-3 and primary cells from patients with recurrent and resistant disease. Kind of test: Cell viability (XTT) of chemoresistant ovarian cancer cells exposed to USP14 inhibitor. The settings on record: increasing concentrations, 48 hours. The format is cell-based, human. As to the method: Inhibition of USP14 selectively kills ovarian cancer cell lines resistant to cisplatin and primary ovarian cancer cells derived from patients with recurrent and chemoresistant disease. Sensitivity to inhibition of USP14 was evaluated in exponentially growing human fibroblasts, in the exponentially growing cisplatin resistant ovarian cancer cell lines HEY and OVCA-3 and in two exponentially growing primary cells derived from patient with recurrent and resistant (to carboplatin) disease. Primary cells were obtained according to a method recently described in two manuscripts.

Another test concerns ovarian cancer cells. Kind of test: Active caspase-3 levels in ovarian cancer cells. Type of test: cell-based. The settings on record: increasing concentrations.
Test [8] deals with ubiquitin-dependent protein degradation in ECC1 cells. Kind of test: Western blot for accumulation of poly-ubiquitinated proteins, ECC1. Type of test: cell-based. As to the method: (§7) Total cellular protein (10-20 μg) from each sample was separated by SDS-PAGE, transferred to PVDF membranes and subjected to Western blot analysis. Antibodies for Western blot analysis were obtained by the following commercial sources: anti-USP14 (Bethyl Laboratories), anti-ubiquitin (Santa Cruz Biotechnology), anti-β-actin (Sigma). Peroxidase-linked anti-mouse Immunoglobulin G and peroxidase-linked anti-rabbit Immunoglobulin G were from Amersham.
(§8) USP14 is a proteasome-associated deubiquitinating enzyme whose role is to remove ubiquitin molecules from targeted proteins prior to degradation by the 20S catalytic activities of the proteasome. […] Thus, the consequences of USP14 inhibition on ubiquitin-dependent protein degradation in endometrial cancer cells was investigated. To this end, ECC1 and HEC155 cells were exposed to 150 nM or 250 nM VLX1570, respectively, over a period of 24 hours and the effect on cellular protein ubiquitination was evaluated by Western blot analysis after 0, 2, 8 or 12 hours from drug exposure. […] Quantifications of the changes in high molecular weight ubiquitin species in each respective cell line, versus control, are given in FIGS. 5B and 5D (top panels).
(§9) Next, endometrial cancer cell lines were exposed to increasing concentrations of VLX1570 ([…] for ECC1 and HEC155, respectively) over a period of 24 hours. The effect on accumulation of poly-ubiquitinated proteins was evaluated by Western blot. […] Quantifications of the changes in high-molecular weight ubiquitin species in dose-dependent fashion are given in FIGS. 5B and 5D (bottom panels).

The subject of test [9] is ubiquitin-dependent protein degradation in HEC155 cells. As to the kind of experiment: Western blot for accumulation of poly-ubiquitinated proteins, HEC155. Type of test: cell-based. As to the method: as §7, §8, §9
For orientation: In western blotting, separated proteins are transferred to a membrane and probed.

Test [10] has as its system HEC155 endometrial cancer cells. As to the kind of experiment: Cell cycle distribution by propidium iodide flow cytometry, HEC155. The format is cell-based. The note with it: HEC155, 300 nM, 24 hours. As to the method: (§10) Cell cycle status following treatment with drug or vehicle alone was determined via flow cytometry analysis. Specifically, cells were harvested at indicated time points and fixed in 70% ethanol on ice for 2 hours. Following washing with PBS, cells were stained with 0.1% (m/v) propidium iodide in PBS-T. Apoptosis was measured using antibodies against active Caspase-3 (BD Pharmingen) or Annexin V (BD Pharmingen) which were combined with propidium iodide staining (Sigma-Aldrich). For apoptosis assays, samples were fixed and stained according to manufacturer's instructions. Fluorescence was measured with a FACSCantoII flow cytometer (Becton Dickinson) and analyzed with FlowJo software.
(§11) The USP14 modulates levels of cell cycle regulatory proteins whose dysregulation is expected to affect the cell cycle. This is further supported by the findings showing a strong correlation between USP14 and Ki67 staining in clinical specimens of endometrial cancer. Thus, the hypothesis that inhibition of USP14 would result in endometrial cancer cells failing to progress through the cell cycle was tested. To this end, HEC155 and ECC1 endometrial cancer cells were incubated with the USP14 inhibitor VLX1570 over a period of 24 hours and the cell cycle status was analyzed by flow cytometry after staining with propidium iodide. […]
On the technique in general: Flow cytometry measures light scatter and fluorescence of single cells or particles in a stream.

In test [11] the test system is ECC1 endometrial cancer cells. Kind of test: Cell cycle distribution by propidium iodide flow cytometry, ECC1. Type of test: cell-based. The note with it: ECC1, 300 nM, 24 hours. The procedure:
as §10, §11

The test system of test [12] is ECC1 endometrial cancer cells. As to the kind of experiment: Apoptosis by flow cytometry (active caspase-3, Annexin V, propidium iodide), ECC1. Type of test: cell-based. The procedure: as §10
(§12) Next, the fate of ECC1 and HEC155 endometrial cancer cells following VLX1570-induced cell cycle arrest was evaluated. Specifically, it was tested whether the reduction in cell viability following drug treatment is consistent with onset of apoptosis. The expression levels of active caspase-3 in control versus VLX1570 treated cells was measured. Importantly, caspase-3 is an active cell-death protease involved in the execution phase of apoptosis, where cells undergo morphological changes such as DNA fragmentation, chromatin condensation and apoptotic body formation.
(§13) Similarly, the fraction of cells taking up propidium iodide, a feature of both advanced apoptosis and necrosis, is elevated in […]. These findings support the hypothesis that pharmacological inhibition of USP14 triggers apoptosis in endometrial cancer cells.

For test [13], the system named is HEC155 endometrial cancer cells. As to the kind of experiment: Apoptosis by flow cytometry (active caspase-3, Annexin V, propidium iodide), HEC155. The format is cell-based. As to the method:
as §10, §12, §13

[14] abbreviates: read-out: IC50 for carboplatin, cell viability.
Where [15] appears, read: ECC1, 20 μM, two rounds over two weeks.
The mark [16] stands for this setting: read-out: IC50, inhibition of cell viability.

Like-named read-outs stand apart in the source and are kept apart here.

`N.N.O=C([O-])C1(C(=O)[O-])CCC1.[Pt+2]` [carboplatin]: the IC50 (in general, the concentration needed to halve the response being measured) in test [1] (setting [14]) was 77.5 µM; in test [2] (setting [14]) it was 97.6 µM. Besides, the “cell death, first round of carboplatin treatment” value in test [3] (setting [15]) and in test [4] was “approx. 60%” each time. Further, the “cell death, second round of carboplatin treatment” value in [3] (setting [15]) and in [4] was “approx. 90%” in each case. Further, in test [3] (ECC1 chemoresistant clones), the “IC50 of chemoresistant clones as compared to the initial population” value is recorded as more than 3 fold. The “decrease in carboplatin sensitivity, resistant versus sensitive cells” value in [5] (COV-362, 48 hours exposure) is recorded as more than 4 fold; in test [6] (ES-2, 48 hours exposure), more than 3 fold.
On to `O=C1/C(=C/c2ccc([N+](=O)[O-])cc2)CNC/C1=C\c1ccc([N+](=O)[O-])cc1` [RA-9, (3E, 5E)-3,5-bis(nitrobenzylidene)piperidin-4-one], for which the “effect on cell viability of chemoresistant ovarian cancer cells” value in [7] is “killed chemoresistant ovarian cancer cells”. Moreover, the Caspase-3 activation entry with ovarian cancer cells is given as “activation of Caspase-3”.
Take `C=CC(=O)N1CC/C(=C\c2ccc(F)c([N+](=O)[O-])c2)C(=O)/C(=C/c2ccc(F)c([N+](=O)[O-])c2)C1` [VLX1570]: the “anti-proliferative concentration, times lower than that required for carboplatin” value in [1] (HEC155) turned out to be 500 times; in [2] (ECC1) it was 800 times. For the same molecule, the IC50 in [1] (setting [16]) worked out at 0.182 µM; in [2] (setting [16]), 0.118 µM; in [5] (carboplatin-resistant COV362 clones, 48 hours, read-out: IC50, inhibition of cell viability), 8.76 µM; in test [6] (carboplatin-resistant ES-2 clones, 48 hours, read-out: IC50, inhibition of cell viability), 7.11 µM. Also, the “inhibition of ubiquitin-dependent protein degradation (dose course)” value in [8] (ECC1, 0-150 μM, 24 hours) was “dose-dependent inhibition of ubiquitin-dependent protein degradation”; in [9] (HEC155, 0-250 μM, 24 hours) it was “dose-dependent inhibition of ubiquitin-dependent protein degradation”. Also, the “start of accumulation of poly-ubiquitinated proteins after drug exposure” value in test [8] (ECC1, 150 nM) is given as “two”; in test [9] (HEC155, 250 nM), “two”. Moreover, the “accumulation of poly-ubiquitinated proteins (time course)” value in test [8] (ECC1, 150 nM, 0, 2, 8 or 12 hours) was “dose-dependent accumulation of poly-ubiquitinated proteins”; in test [9] (HEC155, 250 nM, 0, 2, 8 or 12 hours), “dose-dependent accumulation of poly-ubiquitinated proteins”. Also, the “percentage of cells in the G2/M phase versus controls” value in test [10] is reported as “increase in the percentage of cells in the G2/M phase”. Also, the “percentage of cells in the G2/M phase, treated versus control” value in test [11] is listed as “nearly double”. The “Annexin V staining cells” value in [12] (ECC1, 300 nM, 24 hours) was “increase of Annexin V staining cells”; in [13] (HEC155, 300 nM, 24 hours), “increase of Annexin V staining cells”. Besides, the “fraction of cells taking up propidium iodide” value is reported as “elevated” in test [12] (ECC1, 300 nM, 24 hours) and “elevated” in [13] (HEC155, 300 nM, 24 hours). Also, the “levels of active caspase-3” value in test [12] (ECC1, 24 hours, versus mock) was “increased levels of active caspase-3”; in [13] (HEC155, 24 hours, versus mock), “increased levels of active caspase-3”. Further, the “killing concentration, fold lower than the one required with carboplatin” value in test [5] (carboplatin-resistant COV362) and in [6] (carboplatin-resistant ES-2) was “approx. 10 fold” each time.

The record behind these values is patent US10416163B2, “Method and treatment of recurring endometrial cancer with an inhibitor of USP14” (Regents of the University of Minnesota, priority 2016, dated 2019).
